Measured values reported in patent US8748426B2, “Inhibitors of diacylglycerol acyl transferase” (Piramal Enterprises Limited, priority 2009, dated 2014).

The compounds below were run against T1, hDGAT1 (Homo sapiens, UniProt O75907) (assay: In-vitro DGAT1 assay (14C oleoyl CoA, hDGAT1 microsomes from Sf9 cells)). Settings: read-out: % Inhibition of hDGAT1.
T1 sequence (O75907 1-488): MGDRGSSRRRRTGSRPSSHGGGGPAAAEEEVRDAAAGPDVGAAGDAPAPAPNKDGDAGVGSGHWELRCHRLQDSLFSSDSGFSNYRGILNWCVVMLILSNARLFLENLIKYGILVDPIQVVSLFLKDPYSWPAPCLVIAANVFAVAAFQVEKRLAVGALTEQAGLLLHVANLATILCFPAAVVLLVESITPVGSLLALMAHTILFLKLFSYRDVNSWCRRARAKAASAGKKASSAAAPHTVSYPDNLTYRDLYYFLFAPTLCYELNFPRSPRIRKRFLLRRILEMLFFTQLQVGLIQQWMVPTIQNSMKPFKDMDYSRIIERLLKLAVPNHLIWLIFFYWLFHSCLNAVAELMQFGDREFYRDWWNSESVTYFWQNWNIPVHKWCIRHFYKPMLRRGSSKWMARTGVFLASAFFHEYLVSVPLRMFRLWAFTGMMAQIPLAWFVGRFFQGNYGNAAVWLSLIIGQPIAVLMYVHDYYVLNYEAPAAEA

inhibition at 1 µM [%]	Structure (SMILES)
> 50	Cc1ccccc1NC(=S)Nc1ccc(-c2ccc3c(c2)C(=O)N([C@H](C(=O)O)C(C)C)C3)cc1 [Example 72, (S)-3-Methyl-2-(1-oxo-6-(4-(3-o-tolylthioureido)phenyl)isoindolin-2-yl)butanoic acid]
10 to 50	COc1ccccc1NC(=S)Nc1ccc(-c2ccc3c(c2)C(=O)N([C@H](C(=O)O)C(C)C)C3)cc1 [Example 74, (S)-2-(6-(4-(3-(2-Methoxyphenyl)thioureido)phenyl)-1-oxoisoindolin-2-yl)-3-methylbutanoic acid]
> 50	CC(C)[C@@H](C(=O)O)N1Cc2ccc(-c3ccc(NC(=S)Nc4cccc(C(F)(F)F)c4)cc3)cc2C1=O [Example 76, (S)-3-Methyl-2-(1-oxo-6-(4-(3-(3-(trifluoromethyl)phenyl)thioureido)phenyl)isoindolin-2-yl)butanoic acid]
10 to 50	CC(C)[C@@H](C(=O)O)N1Cc2ccc(-c3ccc(NS(=O)(=O)c4ccc(C#N)cc4)cc3)cc2C1=O [Example 80, (S)-2-(6-(4-(4-Cyanophenylsulfonamido)phenyl)-1-oxoisoindolin-2-yl)-3-methyl butanoic acid]
10 to 50	CC(C)[C@@H](C(=O)O)N1Cc2ccc(-c3ccc(NS(=O)(=O)c4ccc(F)c(F)c4)cc3)cc2C1=O [Example 82, (S)-2-(6-(4-(3,4-Difluorophenylsulfonamido)phenyl)-1-oxoisoindolin-2-yl)-3-methylbutanoic acid]
10 to 50	CC(C)[C@@H](C(=O)O)N1Cc2ccc(-c3ccc(NS(=O)(=O)c4ccc(F)cc4F)cc3)cc2C1=O [Example 84, (S)-2-(6-(4-(2,4-Difluorophenylsulfonamido)phenyl)-1-oxoisoindolin-2-yl)-3-methylbutanoic acid]
10 to 50	COc1ccc(S(=O)(=O)Nc2ccc(-c3ccc4c(c3)C(=O)N([C@H](C(=O)O)C(C)C)C4)cc2)cc1OC [Example 86, (S)-2-(6-(4-(3,4-Dimethoxyphenylsulfonamido)phenyl)-1-oxoisoindolin-2-yl)-3-methylbutanoic acid]
10 to 50	COc1ccc(S(=O)(=O)Nc2ccc(-c3ccc4c(c3)C(=O)N([C@H](C(=O)O)C(C)C)C4)cc2)cc1 [Example 90, (S)-2-(6-(4-(4-Methoxyphenylsulfonamido)phenyl)-1-oxoisoindolin-2-yl)-3-methylbutanoic acid]
10 to 50	CC(C)[C@@H](C(=O)O)N1Cc2ccc(-c3ccc(NS(=O)(=O)c4ccc(C(F)(F)F)cc4)cc3)cc2C1=O [Example 92, (S)-3-Methyl-2-(1-oxo-6-(4-(4-(trifluoromethyl)phenylsulfonamido)phenyl)isoindolin-2-yl)butanoic acid]
10 to 50	CC(C)[C@@H](C(=O)O)N1Cc2ccc(-c3ccc(NS(=O)(=O)Cc4ccccc4)cc3)cc2C1=O [Example 94, (S)-3-Methyl-2-(1-oxo-6-(4-(phenylmethylsulfonamido)phenyl)isoindolin-2-yl)butanoic acid]
10 to 50	CC(C)[C@@H](C(=O)O)N1Cc2ccc(-c3ccc(NS(=O)(=O)C(C)C)cc3)cc2C1=O [Example 96, (S)-3-Methyl-2-(6-(4-(1-methylethylsulfonamido)phenyl)-1-oxoisoindolin-2-yl)butanoic acid]
10 to 50	CC(C)[C@@H](C(=O)O)N1Cc2ccc(-c3ccc(NC(=O)c4ccccc4)cc3)cc2C1=O [Example 98, (S)-2-(6-(4-Benzamidophenyl)-1-oxoisoindolin-2-yl)-3-methylbutanoic acid]
> 50	CC(C)[C@@H](C(=O)O)N1Cc2ccc(-c3ccc(NC(=O)c4ccc(F)cc4)cc3)cc2C1=O [Example 100, (S)-2-(6-(4-(4-Fluorobenzamido)phenyl)-1-oxoisoindolin-2-yl)-3-methylbutanoic acid]
> 50	CC(C)[C@@H](C(=O)O)N1Cc2ccc(-c3ccc(NC(=O)c4ccc(C(F)(F)F)cc4)cc3)cc2C1=O [Example 102, (S)-3-Methyl-2-(1-oxo-6-(4-(4-(trifluoromethyl)benzamido)phenyl)isoindolin-2-yl)butanoic acid]
> 50	COc1ccc(C(=O)Nc2ccc(-c3ccc4c(c3)C(=O)N([C@H](C(=O)O)C(C)C)C4)cc2)cc1 [Example 104, (S)-2-(6-(4-(4-Methoxybenzamido)phenyl)-1-oxoisoindolin-2-yl)-3-methyl butanoic acid]
> 50	CC(C)[C@@H](C(=O)O)N1Cc2ccc(-c3ccc(NC(=O)c4cccc(F)c4)cc3)cc2C1=O [Example 106, (S)-2-(6-(4-(3-Fluorobenzamido)phenyl)-1-oxoisoindolin-2-yl)-3-methylbutanoic acid]
> 50	CC(C)[C@@H](C(=O)O)N1Cc2ccc(-c3ccc(NC(=O)c4cccc(Cl)c4)cc3)cc2C1=O [Example 108, (S)-2-(6-(4-(3-Chlorobenzamido)phenyl)-1-oxoisoindolin-2-yl)-3-methylbutanoic acid]
> 50	CC(C)[C@@H](C(=O)O)N1Cc2ccc(-c3ccc(NC(=O)c4ccc(F)cc4F)cc3)cc2C1=O [Example 110, (S)-2-(6-(4-(2,4-Difluorobenzamido)phenyl)-1-oxoisoindolin-2-yl)-3-methyl butanoic acid]
> 50	Cc1ccc(C(=O)Nc2ccc(-c3ccc4c(c3)C(=O)N([C@H](C(=O)O)C(C)C)C4)cc2)cc1 [Example 112, (S)-3-Methyl-2-(6-(4-(4-methylbenzamido)phenyl)-1-oxoisoindolin-2-yl)butanoic acid]
> 50	CC(C)[C@@H](C(=O)O)N1Cc2ccc(-c3ccc(NC(=O)c4ccc(Cl)cc4)cc3)cc2C1=O [Example 114, (S)-2-(6-(4-(4-Chlorobenzamido)phenyl)-1-oxoisoindolin-2-yl)-3-methylbutanoic acid]
> 50	CC(C)[C@@H](C(=O)O)N1Cc2ccc(-c3ccc(NC(=O)C4CCCCC4)cc3)cc2C1=O [Example 118, (S)-2-(6-(4-(Cyclohexanecarboxamido)phenyl)-1-oxoisoindolin-2-yl)-3-methylbutanoic acid]
> 50	CC(C)[C@@H](C(=O)O)N1Cc2ccc(-c3ccc(NC(=O)c4ccc5ccccc5c4)cc3)cc2C1=O [Example 122, (S)-2-(6-(4-(2-Naphthamido)phenyl)-1-oxoisoindolin-2-yl)-3-methylbutanoic acid]
10 to 50	CC(C)[C@@H](C(=O)O)N1Cc2ccc(-c3ccc(NC(=O)c4c(F)cccc4C(F)(F)F)cc3)cc2C1=O [Example 126, (S)-2-(6-(4-(2-Fluoro-6-(trifluoromethyl)benzamido)phenyl)-1-oxoisoindolin-2-yl)-3-methylbutanoic acid]
> 50	CC(C)[C@@H](C(=O)O)N1Cc2ccc(-c3ccc(NC(=O)c4ccc5c(c4)OCO5)cc3)cc2C1=O [Example 128, (S)-2-(6-(4-(Benzo[d][1,3]dioxole-5-carboxamido)phenyl)-1-oxoisoindolin-2-yl)-3-methylbutanoic acid]
10 to 50	CC(C)[C@@H](C(=O)O)N1Cc2ccc(-c3ccc(NC(=O)c4c(Cl)cccc4Cl)cc3)cc2C1=O [Example 130, (S)-2-(6-(4-(2,6-Dichlorobenzamido)phenyl)-1-oxoisoindolin-2-yl)-3-methyl butanoic acid]
